Measurements as given in publication PMC11123841, “Discovery and Synthesis of Hydroxy-L-Proline Blockers of the Neutral Amino Acid Transporters SLC1A4 (ASCT1) and SLC1A5 (ASCT2)” (Molecules, 2024).
Where “and” joins values, the source holds several entries; their conditions need not be identical. Equal values may be shown once.

Columns and labels:
Assay type in all cases: cell-based
[1] = target: T1, SLC1A1 (EAAT3) (Homo sapiens, UniProt P43005); test: TEVC in oocytes expressing glutamate transporter; conditions: EAAT3 (SLC1A1); 10 µM L-glu current, TEVC; read-out: IC50, block of glutamate current
T1 construct: expressed in transfected cells; host or cells: Xenopus laevis oocytes (cRNA injection)
T1 sequence (P43005 1-524): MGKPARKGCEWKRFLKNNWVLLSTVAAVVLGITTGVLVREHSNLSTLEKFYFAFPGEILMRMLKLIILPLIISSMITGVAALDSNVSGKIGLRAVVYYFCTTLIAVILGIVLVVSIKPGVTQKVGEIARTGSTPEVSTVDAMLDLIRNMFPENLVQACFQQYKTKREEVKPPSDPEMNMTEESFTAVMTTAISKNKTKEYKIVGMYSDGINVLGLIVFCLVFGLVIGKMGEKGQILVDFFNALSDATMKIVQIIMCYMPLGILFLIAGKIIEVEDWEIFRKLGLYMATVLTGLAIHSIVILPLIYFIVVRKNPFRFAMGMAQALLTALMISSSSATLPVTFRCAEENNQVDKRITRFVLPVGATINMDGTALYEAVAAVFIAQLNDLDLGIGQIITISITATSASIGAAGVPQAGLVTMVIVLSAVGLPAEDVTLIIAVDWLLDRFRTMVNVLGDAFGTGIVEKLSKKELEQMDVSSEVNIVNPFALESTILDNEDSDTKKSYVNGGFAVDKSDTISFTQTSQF
Description: (§1) Additionally, 4-HP applied at 1 mM was used to assess activity at the glutamate transporters SLC1A3 or SLC1A1.
(§2) BPOHP activity was evaluated against the glutamate transporters paralogs within the SLC1A gene family (SLC1A 1–3) as well as at neutral amino acid transporters that share common ligand substrates with the SLC1 family including SLC38A1,2, and 4 (ATA1, ATA2, ATA3) and heteromeric transporters SLC7A10+SLC3A2 (asc-1/4f2).
(§3) Uptake was halted by washing 3 times with 4 °C ND96 buffer. Oocytes were then lysed in 0.1% Triton X-100, and radioactivity was counted via liquid scintillation. Dose response curves were generated by fitting fractional inhibition (I) to the expression I = Imax × [inhibitor]/([inhibitor] + IC50).
(§4) Two-electrode voltage clamp (TEVC) transporter currents were recorded with a GeneClamp 500 amplifier and Digidata 1320A analog–digital interface (Molecular Devices, San Jose, CA, USA). Electrodes (0.2–1.0 MΩ) were filled with 3M KCl and the recording chamber was grounded with an agar bridge. Data were acquired with Axograph (v1.7.6) and LabChart (v7) and analyzed with Kaleidagraph software (v4.1) (Synergy, Reading, PA, USA). Uncoupled anion currents associated with the transport of substrate and block of SLC1A4 or SLC1A5 mediated leak conductance were recorded in the presence of Ringer with 50% substitution of NaCl by NaSCN to amplify the non-transported anion conductance.
(§5) Figure SM-2 TEVC from oocytes expressing SLC1A1-3 transporters.
(§6) (1 picture or pasted object on this page, not shown here)

[2] = target: T2, SLC1A3 (EAAT1) (Homo sapiens, UniProt P43003); test: TEVC in oocytes expressing glutamate transporter; conditions: EAAT1 (SLC1A3); 10 µM L-glu current, TEVC; read-out: IC50, block of glutamate current
T2 construct: expressed in transfected cells; host or cells: Xenopus laevis oocytes (cRNA injection)
T2 sequence (P43003 whole entry): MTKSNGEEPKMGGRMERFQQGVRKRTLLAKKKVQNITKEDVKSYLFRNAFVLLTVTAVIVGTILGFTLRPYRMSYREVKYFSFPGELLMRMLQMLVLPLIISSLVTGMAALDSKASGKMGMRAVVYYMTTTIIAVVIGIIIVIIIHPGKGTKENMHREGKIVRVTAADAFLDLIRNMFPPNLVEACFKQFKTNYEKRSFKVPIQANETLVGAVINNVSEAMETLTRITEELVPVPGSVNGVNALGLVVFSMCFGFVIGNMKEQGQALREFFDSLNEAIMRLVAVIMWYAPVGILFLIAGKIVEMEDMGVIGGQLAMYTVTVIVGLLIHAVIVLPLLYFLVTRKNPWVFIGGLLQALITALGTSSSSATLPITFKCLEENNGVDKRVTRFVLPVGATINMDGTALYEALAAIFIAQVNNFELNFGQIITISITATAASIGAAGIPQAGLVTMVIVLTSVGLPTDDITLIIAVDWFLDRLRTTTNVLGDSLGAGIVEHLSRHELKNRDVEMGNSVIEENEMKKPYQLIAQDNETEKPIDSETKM
Description: as §1, §2, §3, §4, §5, §6

[3] = target: T3, SLC3A2 (4f2) injected alone (Homo sapiens, UniProt P08195); test: [3H]D-serine uptake in oocytes; conditions: 10 µM BPOHP
T3 construct: expressed in transfected cells; host or cells: Xenopus laevis oocytes (cRNA injection)
T3 sequence (P08195 1-529): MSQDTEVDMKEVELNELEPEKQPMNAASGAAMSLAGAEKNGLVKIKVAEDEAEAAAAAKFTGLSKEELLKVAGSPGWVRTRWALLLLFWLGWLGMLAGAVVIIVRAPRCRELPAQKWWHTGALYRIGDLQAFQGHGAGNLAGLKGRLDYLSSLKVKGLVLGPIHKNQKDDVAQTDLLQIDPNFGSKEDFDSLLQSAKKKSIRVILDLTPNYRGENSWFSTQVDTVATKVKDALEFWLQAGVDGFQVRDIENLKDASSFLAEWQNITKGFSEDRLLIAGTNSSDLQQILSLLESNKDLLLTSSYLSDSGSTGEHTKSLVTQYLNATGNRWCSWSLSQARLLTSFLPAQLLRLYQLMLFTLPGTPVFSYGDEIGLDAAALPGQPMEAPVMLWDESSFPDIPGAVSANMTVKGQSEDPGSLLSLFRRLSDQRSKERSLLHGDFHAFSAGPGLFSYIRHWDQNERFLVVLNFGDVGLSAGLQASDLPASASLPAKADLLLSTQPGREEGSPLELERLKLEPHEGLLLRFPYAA
Description: Figure SM-3A. Representative traces showing 100µM L-Ala currents and co-application of 3µM BPOHP (black bar) with no effect on SLC38A neutral amino acid transporters SLC38A1(ATA1), SLC38A2 (ATA2), and SLC38A4 (ATA3). SM-3B. [3H]D-serine uptake (100nM) in SLC1A4 is blocked by BPOHP (10µM), however, [ 3H]D-serine uptake by co -expressed SLC7A10+SLC3A2 (asc1+4F2) nor SLC3A2 (4f2) expressed (injected) alone was blocked by application of 10µM BPOHP.
Figure SM-4. Tosic acid approach to compound 12c. (i) Tosylic acid 0.1M in THF 60◦C. (ii) Phenol and NaH in DCM, 40◦C under argon balloon (iii) 10% Pd/C (10% w/eq.), H2, MeOH, H2O, […]
S.Figure 3 A. Representative traces showing 100uM L-Ala currents and co-application of 3uM BPOHP (black bar) with no effect on SLC38A neutral amino acid transporters SLC38A1(ATA1), SLC38A2 (ATA2), and SLC38A4 (ATA3). B. [3H]D-serine uptake (100nM) in SLC1A4 is blocked by BPOHP (10uM), but not the H3D-serine uptake by […]

- IC50 [1]: 19.5 µM and 25.3 µM
- IC50 [2]: 1.75 µM and 2.45 µM
- effect on [3H]D-serine uptake [3]: no effect
Structure (SMILES): O=C(O)[C@H]1NC[C@@H](OCc2ccc(-c3ccccc3)cc2)[C@@H]1O [14e]
